The source of these data is patent EP0220011A2, “Use of azabicloalkylbenzamides in the treatment of gastrointestinal motility disorders, migraine, emesis, cluster headaches, trigeminal neuralgia and arrhythmia” (BEECHAM GROUP PLC, priority 1985, dated 1987).

Holding throughout (format): in vivo
Assay [1] is described as follows: Intragastric pressure in the rat. Particulars: dose of 0.13 mg/kg s.c.; fasted conscious restrained rats; 40 minute period following dosing. Here is the method:
Intragastric pressure changes were recorded from fasted conscious and restrained rats using a saline filled catheter inserted into the lumen of the stomach via a permanent gastric fistula. The catheter was connected to a physiological pressure transducer and pressure changes recorded on a hot wire pen recorder. An index of activity was obtained by measuring the average height of pressure waves during 10 minute periods. Values for 4 such periods were obtained during assessment of spontaneous activity prior to dosing and for the 40 minute period following dosing with compound or vehicle. The Student's " t " test was applied to the mean values obtained for activity prior to and post treatment. Groups of 10 animals were used for each treatment.

For assay [2], the system named is von Bezold-Jarisch reflex evoked by 5-HT. Briefly: Antagonism of the von Bezold-Jarisch reflex. Particulars: iv; anaesthetised rat; reduces the 5-HT-evoked heart rate response to 50% of the control response. Here is the method: The compounds were evaluated for antagonism of the von Bezold-Jarisch reflex evoked by 5-HT in the anaesthetised rat according to the following method: • Male rats, 250-350g, were anaesthetised with urethane (1.25g/kg intraperitoneally) and blood pressure and heart rate recorded as described by Fozard J.R. et al., J. Cardiovasc. Pharmacol. 2, 229-245 (1^80). A submaximal dose of 5-HT (usually 6ug/kg) was given repeatedly by the intravenous route and changes in heart rate quantified. Compounds were given intravenously and the concentration required to reduce the 5-HT-evoked response to 50% of the control response (ED50) was then determined.

Assay [3] in a line: Intraluminal pressure in the Heidenhain pouch of the dog. The settings on record: dose of O.Olmg/kg i.v.; fasted conscious dog, chronic Heidenhain pouch; for at least 4-5 minutes. The method, then: Pressure changes were recorded via a saline filled catheter inserted, with airtight closure, into the fistula of a chronic Heidenhain pouch of the previously fasted and lightly restrained conscious dog. The catheter was connected to a physiological pressure transducer and pressure changes recorded on a hot wire pen recorder. Compounds were administered when the motility was in a phase of relatively low activity and the dose range determined which induced an increase in the amplitude of rhythmical contractions for a period of at least 4-5 minutes.

For the compound `COc1cc(N)c(Cl)cc1C(=O)NC1CC2CCC(C1)N2C` (stereo not drawn) [Compound No. 20, (endo)-4-amino-5-chloro-2-methoxy-N-(8-methyl-8-azabicyclo[3.2.1]octyl) benzamide], the “Intragastric pressure changes (average height of pressure waves)” value in assay [1] is listed as “active”. The compound also showed a 50% effective dose (ED50) in assay [2] of 0.8 ± 0.2 µg/kg.
Regarding `COc1cc(N)c(Br)cc1C(=O)NC1CC2CCC(C1)N2C` (stereo not drawn) [Example 1, (endo)-4-Amino-5-bromo-2-methoxy-N-(8-methyl-8-aza-bicyclo[3,2,l]oct-3-yl) benzamide], the “increase in the amplitude of rhythmical contractions (intraluminal pressure)” value in assay [3] was “active”.

Usually ED50 stands for the dose that gives a 50% effect, or the effect in half of the subjects. Read a high ED50 as a need for a large dose.
